Laboratory results as given in PMC11477717, “Synthesis of Carborane–Thiazole Conjugates as Tyrosinase and 11β-Hydroxysteroid Dehydrogenase Inhibitors: Antiproliferative Activity and Molecular Docking Studies” (Molecules, 2024).
Where two headings read alike, the source gives them in different places.

Legend:
[1] = tested on: A172 (human brain glioblastoma); assay: MTT antiproliferative assay, A172; format: cell-based; settings: for IC50: MTT, 72 h, A172 cells, read-out: IC50 ± SD A172; for SI HUVEC/A172: selectivity index = IC50 normal cell line / IC50 cancer cell line
Method: (§1) All cell lines were obtained from ATCC, and all chemicals were purchased from Sigma-Aldrich, St. Louis, MO, USA. […] All media were supplemented with antibiotic and antimycotic solutions, according to the manufacturers’ instructions. MTT cytotoxicity assessments were performed as described previously. […] The cells counted using an automated cell counter (Countess® II FL, Invitrogen by Thermo Fisher Scientific Inc., Waltham, MA, USA) were plated in 96-well plates (Nunc Edge 2F, Thermo Fisher Scientific Inc.) at a density of 0.1 × 10^4 per well. After an additional 72 h, cells underwent an MTT cytotoxicity assay (see below). The IC50 values were calculated using ED50plus v 1.0 freeware software (Instituto Nacional de Enfermedades Respiratorias, Mexico City, Mexico). Each cell line was tested in three independent replicates.
(§2) After the incubation time was complete, the medium was removed and crystals of formazan were solubilized in pure isopropanol. The absorbance readout was conducted immediately using a plate reader, Multiskan Spectrum, at 570 nm (Thermo Fisher Scientific Inc., Waltham, MA, USA). The background optical density was measured in the wells filled with the culture medium, without any cells.

B16F10 (murine melanoma) = assay: MTT antiproliferative assay, B16F10; format: cell-based; settings: for IC50: MTT, 72 h, B16F10 cells, read-out: IC50 ± SD B16F10; for SI HUVEC/ B16F10: selectivity index = IC50 normal cell line / IC50 cancer cell line
Method: as §1, §2

[2] = tested on: MDA-MB-231 (human breast adenocarcinoma); assay: MTT antiproliferative assay, MDA-MB-231; format: cell-based; settings: for IC50: MTT, 72 h, MDA-MB-231 cells, read-out: IC50 ± SD MDA-MB-231; for SI HUVEC/ MDA-MB-231: selectivity index = IC50 normal cell line / IC50 cancer cell line
Method: as §1, §2

[3] = tested on: HUVEC (human umbilical vein endothelial cells); assay: MTT antiproliferative assay, HUVEC healthy control; format: cell-based; settings: 72 h, HUVEC normal cells, read-out: IC50 ± SD HUVEC
Method: All cell lines were obtained from ATCC, and all chemicals were purchased from Sigma-Aldrich, St. Louis, MO, USA. Briefly, cells were cultivated in a controlled atmosphere using DMEM medium with fetal bovine serum (FBS) at a final concentration of 10% (A-172), an L15 medium with 15% FBS, cultivated without CO2 (MDA-MB-231), F12K with a heparin final concentration of 0.1 mg/mL, endothelial cell growth supplement with a final concentration of 0.03 mg/mL (HUVEC), and RPMI with 5% FBS. All media were supplemented with antibiotic and antimycotic solutions, according to the manufacturers’ instructions. MTT cytotoxicity assessments were performed as described previously. Briefly, cell lines A172, B16F10, MDA-MB-231, and HUVEC were seeded 24 h prior to the addition of the tested compounds. The cells counted using an automated cell counter (Countess® II FL, Invitrogen by Thermo Fisher Scientific Inc., Waltham, MA, USA) were plated in 96-well plates (Nunc Edge 2F, Thermo Fisher Scientific Inc.) at a density of 0.1 × 10^4 per well. After an additional 72 h, cells underwent an MTT cytotoxicity assay (see below). The IC50 values were calculated using ED50plus v 1.0 freeware software (Instituto Nacional de Enfermedades Respiratorias, Mexico City, Mexico). Each cell line was tested in three independent replicates.
Twenty microliters of an MTT solution (MTT: 3-(4,5-dimethylthiazol-2-yl)-2,5-diphenyl tetrazolium bromide, stock solution: 5 mg/mL) was added to each cell line for 2 h (A172, B16F10, MDA-MB-231, and HUVEC). After the incubation time was complete, the medium was removed and crystals of formazan were solubilized in pure isopropanol. The absorbance readout was conducted immediately using a plate reader, Multiskan Spectrum, at 570 nm (Thermo Fisher Scientific Inc., Waltham, MA, USA). The background optical density was measured in the wells filled with the culture medium, without any cells.

mushroom tyrosinase [4] = biological target: T1, mushroom tyrosinase (Agaricus bisporus, UniProt C7FF04); assay: Mushroom tyrosinase inhibition assay (L-DOPA, dopachrome 475 nm); format: biochemical
T1 construct: purchased Sigma-Aldrich
Method: The mushroom tyrosinase (Sigma-Aldrich) inhibition was performed following previously reported methods. […] The inhibitor solutions were prepared in DMSO with an initial concentration of 1 mM. Different aliquots were added to the solution containing the buffer, L-DOPA, and EDTA, with the enzyme being added last. […] Ascorbic acid was used as a reference inhibitor with an initial concentration of 1 mM. The IC50 values were calculated from the equation generated via exponential fit of the experimental data.

mushroom tyrosinase [5] = biological target: T1, mushroom tyrosinase; assay: Kinetic analysis of the inhibition of tyrosinase (Lineweaver-Burk); format: biochemical; settings: compound at 0.05 mM; for Mechanism of Inhibition: Lineweaver-Burk plots; for Vmax: L-DOPA 100-250 µM
Method: A series of experiments were performed to determine the inhibition kinetics of compounds by following the already reported method. The inhibitor concentrations for compounds were 50 and 100 µM. The substrate L-DOPA concentration was between 100 and 250 µM in all kinetic studies. Maximal initial velocity was determined from the initial linear portion of absorbance up to ten minutes after the addition of the enzyme. The inhibition type of the enzyme, Michaelis constant (KM), and maximal velocity (Vmax) were determined by Lineweaver–Burk plots of the inverse of velocities (1/V) versus the inverse of substrate concentration 1/[L-DOPA] mM^−1.

11β-HSD1 = biological target: T2, 11β-HSD1 (Homo sapiens, UniProt P28845); assay: Inhibition of 11β-HSD1 assay (cortisone to cortisol, microsomes, cortisol ELISA); format: biochemical
T2 construct: tissue XenoTech Lot No. 1410013; host or cells: pooled human liver microsomes
Method: L160706125, was obtained from Cloud-Clone Corp. PBS, Lot No. H161008, was obtained from Pan Biotech. […] L191113457, was obtained from Cloud-Clone Corp. […] The microplates were incubated on an orbital shaker for 150 min at 37 °C. […] The quantity of cortisol formed from cortisone was determined using a cortisol ELISA kit, […].

11β-HSD2 = biological target: T3, 11β-HSD2 (Homo sapiens, UniProt P80365); assay: Inhibition of 11β-HSD2 assay (cortisol to cortisone, microsomes, cortisol ELISA); format: biochemical; settings: inhibitor 10 µM, 150 min, 37 °C
T3 construct: Human kidney microsomes, mixed gender, 0.5 mL, 10 mg/mL, Lot No. 1710160, were obtained from XenoTech; tissue XenoTech Lot No. 1710160; host or cells: human kidney microsomes
T3 sequence (P80365 1-405): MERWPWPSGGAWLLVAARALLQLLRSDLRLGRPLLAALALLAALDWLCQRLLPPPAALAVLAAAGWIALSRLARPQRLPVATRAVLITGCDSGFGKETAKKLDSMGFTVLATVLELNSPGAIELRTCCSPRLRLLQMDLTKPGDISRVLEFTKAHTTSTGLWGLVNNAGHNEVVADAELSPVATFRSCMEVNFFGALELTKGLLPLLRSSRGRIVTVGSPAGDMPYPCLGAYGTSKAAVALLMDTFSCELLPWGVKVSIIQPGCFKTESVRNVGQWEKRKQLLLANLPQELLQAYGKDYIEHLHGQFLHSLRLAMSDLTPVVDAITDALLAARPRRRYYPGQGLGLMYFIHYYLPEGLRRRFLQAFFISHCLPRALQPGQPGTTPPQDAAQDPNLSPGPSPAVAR
Method: The Enzyme-Linked Immunosorbent Assay (ELISA) Kit for 11-Beta-Hydroxysteroid Dehydrogenase Type 1, Lot No. L160706125, was obtained from Cloud-Clone Corp. PBS, Lot No. H161008, was obtained from Pan Biotech. […] The Enzyme-Linked Immunosorbent Assay (ELISA) Kit for 11-Beta-Hydroxysteroid Dehydrogenase Type 2, Lot No. L191113457, was obtained from Cloud-Clone Corp.
The oxidation reaction of cortisol to cortisone was carried out on 96-well microtiter plates in the presence of the enzyme 11β-HSD2 in a total volume of 100 µL. To this end, 60 µL of phosphate buffer (pH 7.4), 10 µL of a microsomes(0.12 µg/mL […]) solution in PBS (final quantity 2.5 µg), 20 µL of substrate mixture cortisol/NAD (final concentration 200 nM/2 mM), and 10 µL of the appropriate inhibitor solution (solvent DMSO/water 1/99, final concentration 10 µM) were placed in each well. The microplates were incubated on an orbital shaker for 150 min at 37 °C. […] The quantity of unreacted cortisol was determined using a cortisol ELISA kit DiaMetra.

[6] = L-DOPA 0.17 mM, pH 6.8, room temperature, read-out: IC50 ± SD mushroom tyrosinase
[7] = rounded values in SAR summary, unit mM, read-out: IC50 tyrosinase inhibition
[8] = inhibitor 10 µM, 150 min, 37 °C

T1 sequence (C7FF04 1-392 limits assumed): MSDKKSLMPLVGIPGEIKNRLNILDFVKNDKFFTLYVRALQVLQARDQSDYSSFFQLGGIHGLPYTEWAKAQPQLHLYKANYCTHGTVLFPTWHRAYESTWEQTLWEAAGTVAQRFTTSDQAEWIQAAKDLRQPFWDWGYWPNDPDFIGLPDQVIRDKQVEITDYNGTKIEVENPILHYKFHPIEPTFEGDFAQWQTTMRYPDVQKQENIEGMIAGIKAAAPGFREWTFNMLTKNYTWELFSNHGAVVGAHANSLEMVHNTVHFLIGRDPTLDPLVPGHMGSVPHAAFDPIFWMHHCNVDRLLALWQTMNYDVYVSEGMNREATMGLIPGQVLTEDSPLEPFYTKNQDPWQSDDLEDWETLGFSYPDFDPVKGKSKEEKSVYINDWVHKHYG
T2 sequence (P28845 whole entry): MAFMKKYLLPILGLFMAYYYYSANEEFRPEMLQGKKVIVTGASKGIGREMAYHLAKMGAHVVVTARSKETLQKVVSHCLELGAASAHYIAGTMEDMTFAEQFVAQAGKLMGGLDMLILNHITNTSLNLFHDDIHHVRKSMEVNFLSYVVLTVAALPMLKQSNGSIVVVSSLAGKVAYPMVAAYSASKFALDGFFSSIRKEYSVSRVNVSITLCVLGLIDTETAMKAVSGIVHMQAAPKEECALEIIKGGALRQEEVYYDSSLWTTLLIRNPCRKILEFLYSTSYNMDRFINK

Compound | IC50 [1] [µM] | IC50 (B16F10 (murine melanoma)) [µM] | SI HUVEC/ B16F10 (B16F10 (murine melanoma)) | IC50 [2] [µM] | IC50 [3] [µM] | IC50 (mushroom tyrosinase [4]; [6]) [mM] | Mechanism of Inhibition (mushroom tyrosinase [5]) | Vmax (mushroom tyrosinase [5]) [mM/min] | SI HUVEC/A172 [1] | SI HUVEC/ MDA-MB-231 [2] | IC50 (mushroom tyrosinase [4]; [7]) [mM] | IC50 (11β-HSD1; 5 inhibitor concentrations, three independent determinations, read-out: IC50 ± SD 11β-HSD1) [µM] | % of 11β-HSD1 Inhibition 10 μM (11β-HSD1; [8]) [%] | IC50 (11β-HSD1; values in SAR summary, unit inferred, read-out: IC50 11β-HSD1 (unit inferred)) [µM] | % of 11β-HSD2 Inhibition 10 μM (11β-HSD2) [%] | inhibition at 10 µM (11β-HSD1; [8]) [%] | IC50 ([1]; Homo sapiens, A 172) [µM] | IC50 (B16F10 (murine melanoma); Mus musculus, B16-F10) [µM] | IC50 ([2]; Homo sapiens) [µM] | IC50 ([3]; Homo sapiens) [µM]
2-(2-(1,2-Dicarba-closo-Dodecaboranylmethylene)Hydrazinyl)-4-(3,4,5-Trimethoxyphenyl)Thiazole [4i] | > 10 | 5.88 | >1.70 | > 10 | > 10 | 0.18 ± 0.00783 | Mixed | 0.5474 |  |  |  |  |  |  |  |  |  |  |  | 
2-(2-(1,2-Dicarba-closo-Dodecaboranylmethylene)Hydrazinyl)-4-(3,4-Dichlorophenyl)Thiazole [4e] | 6.44 ± 0.6 | 5.58 ± 0.35 | 1.41 | 6.99 ± 2.27 | 7.86 ± 0.61 | 0.142 ± 0.013 | Activator | 0.1575 | 1.22 | 1.12 | 0.142 | 7.9 ± 1.4 | 62.17 | 7.9 to 8.1 | 19.34 |  |  |  |  | 
4-(2-(2-(1,2-Dicarba-closo-Dodecaboranylmethylene)Hydrazinyl)Thiazol-4-yl)Benzene-1-Sulfonyl Fluoride [4j] | 6.4 ± 0.71 | 5.75 ± 0.46 | >1.74 | 6.43 ± 0.23 | > 10 |  | Mixed | 0.7876 | >1.56 | >1.56 |  |  |  |  |  |  |  |  |  | 
4-(2-(2-(1,2-Dicarba-closo-Dodecaboranylmethylene)Hydrazinyl)Thiazol-4-yl)Benzonitrile [4h] | 7.72 ± 1.25 | 5.56 ± 0.3 | 1.11 | 6.64 ± 0.81 | 6.17 ± 0.35 |  | Mixed | 0.1258 | 0.80 | 0.93 |  |  |  |  |  |  |  |  |  | 
4-(Adamant-1-yl)-2-(2-(1,2-Dicarba-closo-Dodecaboranylmethylene)Hydrazinyl)Thiazole [4k] | > 10 | > 10 |  | > 10 | 5.86 ± 0.34 | 0.134 ± 0.00584 | Mixed | 0.7863 |  |  | 0.134 |  |  |  |  |  |  |  |  | 
O=C1O[C@H]([C@@H](O)CO)C(O)=C1O [Ascorbic acid, reference compound] |  |  |  |  |  | 0.387 ± 0.012 |  |  |  |  |  |  |  |  |  |  |  |  |  | 
CC1(C)[C@@H](OC(=O)CCC(=O)O)CC[C@]2(C)[C@H]3C(=O)C=C4[C@@H]5C[C@@](C)(C(=O)O)CC[C@]5(C)CC[C@@]4(C)[C@]3(C)CC[C@@H]12 [Carbenoxolone, carbenoxolone, reference compound] |  |  |  |  |  |  |  |  |  |  |  |  |  |  |  | 88.9 |  |  |  | 
O=C(O)CCCc1ccc(N(CCCl)CCCl)cc1 [chlorambucil, reference compound] |  |  | 1.37 |  |  |  |  |  |  |  |  |  |  |  |  |  | > 10 | 5.44 ± 0.19 | > 10 | 7.43 ± 0.54
